Assay results from patent US9499519B2, “Fused pyrimidine compounds and use thereof” (Medivation Technologies, Inc., priority 2012, dated 2016).

Key:
IGF-1R = biological target: T1, IGF-1R (Homo sapiens, UniProt P08069); test: In vitro IGF-1R enzymatic assay (ADP-Glo kinase assay); assay type: biochemical; conditions: activated IGF-1R, 30 nM, average; for inhibition at 0.03 µM: read-out: % Inh @ 30 nM Avg
T1 construct: purchased Millipore 14-802
Procedure: IC50 values of the compounds of the invention against IGF-1R and IR were measured in vitro using an ADP-Glo kinase assay Kit (Promega). […] Kinase reactions in both assays were conducted at 30° C. for 20 min with increasing concentrations of compounds of the invention.
Additional compounds of the invention were screened against activated IGF-1R.

[1] = test system: Akt phosphorylation induced by IGF-1R; test: Western blot analysis of Akt phosphorylation induced by IGF-1 in HT-29 cells; assay type: cell-based, Human; conditions: for Levels of phosphorylated AKT in treated cells (pAKT/actin): HT-29 cells, IGF-1; for p-AKT relative to levels with 0.1 nM compound: Table B2 lower part; for Normalized phosphorylated AKT (relative to actin) levels relative to 0.1 nM compound treatment: Table B2 upper part
Procedure: Inhibition of Akt phosphorylation induced by IGF-1R was studied by western blot analysis. Human colon carcinoma HT-29 cells were seeded at a density of 8×10^4 cells/well in a 24-well plate and grown in DME/F12 media containing 10% FBS for 24 h. The cells were then depleted of serum by incubation in DME/F12 media lacking FBS for 24 h. […] […] Lysed cells were centrifuged at 13,000 rpm for 15 min and the protein concentration soluble fraction (supernatant) of each sample was determined using a BCA protein assay (Pierce).

T1 sequence (P08069 31-1367): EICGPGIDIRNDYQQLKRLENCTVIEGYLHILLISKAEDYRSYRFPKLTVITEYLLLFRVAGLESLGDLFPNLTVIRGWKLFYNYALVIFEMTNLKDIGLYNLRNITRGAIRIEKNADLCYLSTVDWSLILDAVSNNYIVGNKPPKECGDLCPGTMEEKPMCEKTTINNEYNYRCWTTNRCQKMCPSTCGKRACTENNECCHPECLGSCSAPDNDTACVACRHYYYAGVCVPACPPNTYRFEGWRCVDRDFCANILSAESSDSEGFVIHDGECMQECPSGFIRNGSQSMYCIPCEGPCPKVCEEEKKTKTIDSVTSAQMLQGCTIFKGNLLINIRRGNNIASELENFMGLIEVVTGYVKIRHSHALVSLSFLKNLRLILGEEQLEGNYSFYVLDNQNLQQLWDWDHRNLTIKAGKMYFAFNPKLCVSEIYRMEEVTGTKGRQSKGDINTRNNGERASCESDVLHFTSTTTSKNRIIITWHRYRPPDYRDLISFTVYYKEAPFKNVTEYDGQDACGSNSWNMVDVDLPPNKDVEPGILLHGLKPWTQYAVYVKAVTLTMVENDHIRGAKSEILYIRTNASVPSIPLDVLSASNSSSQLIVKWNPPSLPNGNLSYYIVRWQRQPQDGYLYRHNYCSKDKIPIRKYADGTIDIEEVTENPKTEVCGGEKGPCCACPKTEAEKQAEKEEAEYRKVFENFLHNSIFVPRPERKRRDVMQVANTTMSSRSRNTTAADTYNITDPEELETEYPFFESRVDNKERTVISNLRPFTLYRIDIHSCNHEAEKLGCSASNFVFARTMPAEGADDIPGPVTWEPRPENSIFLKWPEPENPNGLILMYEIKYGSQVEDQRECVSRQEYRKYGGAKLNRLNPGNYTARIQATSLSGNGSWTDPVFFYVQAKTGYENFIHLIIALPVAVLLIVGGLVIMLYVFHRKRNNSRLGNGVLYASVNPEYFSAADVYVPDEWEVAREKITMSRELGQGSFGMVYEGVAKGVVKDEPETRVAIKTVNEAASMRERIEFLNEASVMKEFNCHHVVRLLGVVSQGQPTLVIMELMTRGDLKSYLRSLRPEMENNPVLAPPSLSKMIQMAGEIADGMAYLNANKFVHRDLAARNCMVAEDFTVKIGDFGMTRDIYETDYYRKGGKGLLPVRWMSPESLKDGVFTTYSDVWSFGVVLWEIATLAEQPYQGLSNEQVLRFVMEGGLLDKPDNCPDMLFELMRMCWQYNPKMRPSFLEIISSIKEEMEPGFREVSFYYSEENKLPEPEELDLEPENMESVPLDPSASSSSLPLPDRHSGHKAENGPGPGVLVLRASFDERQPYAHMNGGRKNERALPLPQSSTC

Compound | % Inh @ 30 nM Avg (IGF-1R) [%] | Levels of phosphorylated AKT in treated cells (pAKT/actin) ([1]; 0.1 nM compound) | p-AKT relative to levels with 0.1 nM compound ([1]; 0.1 nM) | Normalized phosphorylated AKT (relative to actin) levels relative to 0.1 nM compound treatment ([1]; 0.1 nM) | Levels of phosphorylated AKT in treated cells (pAKT/actin) ([1]; 1 nM compound) | p-AKT relative to levels with 0.1 nM compound ([1]; 1 nM) | Normalized phosphorylated AKT (relative to actin) levels relative to 0.1 nM compound treatment ([1]; 1 nM) | Levels of phosphorylated AKT in treated cells (pAKT/actin) ([1]; 10 nM compound) | p-AKT relative to levels with 0.1 nM compound ([1]; 10 nM) | Normalized phosphorylated AKT (relative to actin) levels relative to 0.1 nM compound treatment ([1]; 10 nM) | Levels of phosphorylated AKT in treated cells (pAKT/actin) ([1]; 100 nM compound) | p-AKT relative to levels with 0.1 nM compound ([1]; 100 nM) | Normalized phosphorylated AKT (relative to actin) levels relative to 0.1 nM compound treatment ([1]; 100 nM) | inhibition at 0.03 µM (IGF-1R) [%]
O=C(Nc1ccc(F)nc1)C1CC(O)CN1c1nc2c(c(Nc3cc(C4CC4)[nH]n3)n1)CCC2 (racemic) [Compound 10c, 1-(4-(5-cyclopropyl-1H-pyrazol-3-ylamino)-6,7-dihydro-5H-cyclopenta[d]pyrimidin-2-yl)-N-(6-fluoropyridin-3-yl)-4-hydroxypyrrolidine-2-carboxamide] | 15 | – | – | – | – | – | – | – | – | – | – | – | – | –
O=C(Nc1ccc(F)nc1)C1CCCCN1c1nc2c(c(Nc3cc(C4CC4)[nH]n3)n1)CCC2 (single isomer, unassigned) [Compound 9a, 1-(4-(3-cyclopropyl-1H-pyrazol-5-ylamino)-6,7-dihydro-5H-cyclopenta[d]pyrimidin-2-yl)-N-(6-fluoropyridin-3-yl)piperidine-2-carboxamide] | – | 1.24 | 1.0 | 1.0 | 1.26 | 1.0 | 1.0 | 0.53 | 0.4 | 0.4 | 0.02 | 0.0 | 0.0 | –
O=C(Nc1ccc(F)nc1)C1CCCCN1c1nc2c(c(Nc3cc(C4CC4)[nH]n3)n1)CCC2 (single isomer, unassigned) [Compound 9b, 1-(4-(3-cyclopropyl-1H-pyrazol-5-ylamino)-6,7-dihydro-5H-cyclopenta[d]pyrimidin-2-yl)-N-(6-fluoropyridin-3-yl)piperidine-2-carboxamide] | – | 1.46 | 1.0 | 1.0 | 1.55 | 1.1 | 1.1 | 1.18 | 0.8 | 0.8 | 0.78 | 0.5 | 0.5 | –
O=C(Nc1ccc(F)nc1)C1CCCN1c1nc2c(c(Nc3cc(C4CC4)[nH]n3)n1)CCCC2 (single isomer, unassigned) [Compound 14a, 1-(4-(5-cyclopropyl-1H-pyrazol-3-ylamino)-5,6,7,8-tetrahydroquinazolin-2-yl)-N-(6-fluoropyridin-3-yl)pyrrolidine-2-carboxamide] | – | 0.73 | 1.0 | 1.0 | 0.51 | 0.7 | 0.7 | 0.43 | 0.6 | 0.6 | 0.35 | 0.5 | 0.5 | –
O=C(Nc1ccc(F)nc1)C1CCCN1c1nc2c(c(Nc3cc(C4CC4)[nH]n3)n1)CCCC2 (single isomer, unassigned) [Compound 14b, 1-(4-(5-cyclopropyl-1H-pyrazol-3-ylamino)-5,6,7,8-tetrahydroquinazolin-2-yl)-N-(6-fluoropyridin-3-yl)pyrrolidine-2-carboxamide] | – | 0.51 | 1.0 | 1.0 | 0.49 | 0.9 | 0.9 | 0.02 | 0.0 | 0.0 | 0.00 | 0.0 | 0.0 | –
O=C(Nc1ccc(F)nc1)C1CCCCN1c1nc2c(c(Nc3cc(C4CCCC4)[nH]n3)n1)CCC2 (single isomer, unassigned) [Compound 17a, 1-(4-(5-cyclopentyl-1H-pyrazol-3-ylamino)-6,7-dihydro-5H-cyclopenta[d]pyrimidin-2-yl)-N-(6-fluoropyridin-3-yl)piperidine-2-carboxamide] | – | 0.89 | 1.0 | 1.0 | 1.22 | 1.4 | 1.4 | 1.01 | 1.1 | 1.1 | 1.08 | 1.2 | 1.2 | –
COC1CC(C(=O)Nc2ccc(F)nc2)N(c2nc3c(c(Nc4cc(C5CC5)[nH]n4)n2)CCC3)C1 (single isomer, unassigned) [Compound 21a, 1-(4-(5-cyclopropyl-1H-pyrazol-3-ylamino)-6,7-dihydro-5H-cyclopenta[d]pyrimidin-2-yl)-N-(6-fluoropyridin-3-yl)-4-methoxypyrrolidine-2-carboxamide] | – | – | – | – | – | – | – | – | – | – | – | – | – | 14
COC1CC(C(=O)Nc2ccc(F)nc2)N(c2nc3c(c(Nc4cc(C5CC5)[nH]n4)n2)CCC3)C1 (single isomer, unassigned) [Compound 21b, 1-(4-(5-cyclopropyl-1H-pyrazol-3-ylamino)-6,7-dihydro-5H-cyclopenta[d]pyrimidin-2-yl)-N-(6-fluoropyridin-3-yl)-4-methoxypyrrolidine-2-carboxamide] | – | – | – | – | – | – | – | – | – | – | – | – | – | 41
CC1(O)CC(c2nc(-c3ccc4ccc(-c5ccccc5)nc4c3)c3c(N)nccn23)C1 (stereo not shown) [OSI-906, 3-[8-Amino-1-(2-phenyl-7-quinolyl)imidazo[1,5-a]pyrazin-3-yl]-1-methyl-cyclobutanol, reference compound] | – | 1.06 | – | – | 0.85 | – | – | 1.58 | – | – | 0.40 | – | – | –
